From US20260285850A1, “SUBSTITUTED OXAZOLIDINONES AND IMIDAZOLINONES AS HERBICIDES” (FMC CORPORATION, priority 2023, published 2026)

Experiments:
Type in all cases: in vivo
[1] = tested on: foxtail, giant (giant foxtail, Setaria faberi); assay: Test A preemergence soil spray, visual injury rating 0-100; settings: 10 days, 0 = no effect, 100 = complete control
Outline: (§1)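 Compound in a non-phytotoxic, surfactant-containing solvent is applied either as a directed soil spray before seedlings emerge or onto emerged plants 2-10 cm tall; pots hold a loam-sand blend. Plants grow 10 days under greenhouse conditions and are rated by eye against untreated controls (0 no effect, 100 complete control).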

[2] = tested on: goosegrass (Eleusine indica); assay: as above; settings: 10 days, 0 = no effect, 100 = complete control
Outline: as §1

kochia (Bassia scoparia) [3] = assay: as above; settings: 10 days, 0 = no effect, 100 = complete control
Outline: as §1

[4] = tested on: palmer (palmer amaranth, palmer pigweed, Amaranthus palmeri); assay: as above; settings: 10 days, 0 = no effect, 100 = complete control
Outline: as §1

[5] = tested on: ragweed (common ragweed, Ambrosia artemisiifolia); assay: as above; settings: 10 days, 0 = no effect, 100 = complete control
Outline: as §1

[6] = tested on: ryegrass, Italian (italian ryegrass, Lolium multiflorum); assay: as above; settings: 10 days, 0 = no effect, 100 = complete control
Outline: as §1

[7] = tested on: blackgrass (Alopecurus myosuroides); assay: Test A postemergence application, visual injury rating 0-100; settings: Postemergence, 10 days; for Blackgrass plant response rating (0 to 100 scale): 0 is no effect, 100 is complete control
Outline: as §1

[8] = tested on: foxtail, giant (giant foxtail, Setaria faberi); assay: as above; settings: 10 days; for Foxtail, Giant plant response rating (0 to 100 scale): 0 is no effect, 100 is complete control
Outline: as §1

[9] = tested on: goosegrass (Eleusine indica); assay: as above; settings: 10 days; for Goosegrass plant response rating (0 to 100 scale): 0 is no effect, 100 is complete control
Outline: as §1

[10] = tested on: horseweed (Erigeron canadensis); assay: as above; settings: Postemergence, 10 days; for Horseweed plant response rating (0 to 100 scale): 0 is no effect, 100 is complete control
Outline: as §1

kochia (Bassia scoparia) [11] = assay: as above; settings: Postemergence, 10 days; for Kochia plant response rating (0 to 100 scale): 0 is no effect, 100 is complete control
Outline: as §1

[12] = tested on: palmer (palmer amaranth, palmer pigweed, Amaranthus palmeri); assay: as above; settings: Postemergence, 10 days; for Amaranth, Palmer / Pigweed, Palmer plant response rating (0 to 100 scale): 0 is no effect, 100 is complete control
Outline: as §1

[13] = tested on: ragweed (common ragweed, Ambrosia artemisiifolia); assay: as above; settings: Postemergence, 10 days; for Ragweed plant response rating (0 to 100 scale): 0 is no effect, 100 is complete control
Outline: as §1

[14] = tested on: ryegrass, Italian (italian ryegrass, Lolium multiflorum); assay: as above; settings: Postemergence, 10 days; for Ryegrass, Italian plant response rating (0 to 100 scale): 0 is no effect, 100 is complete control
Outline: as §1

[15] = tested on: barnyardgrass (Echinochloa crusgalli); assay: Test B flooded paddy test, visual plant response rating 0-100; settings: 250 g ai/ha, Flood, applied to paddy water, evaluated after 13 days
Outline: (§2)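 Compounds applied to standing paddy water (3 cm above soil, maintained for the test duration) on 2-leaf-stage plants; visual rating vs controls at 13 days, greenhouse.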

[16] = tested on: ducksalad (Heteranthera limosa); assay: as above; settings: 250 g ai/ha, Flood, applied to paddy water, evaluated after 13 days
Outline: as §2

rice (Oryza sativa) = assay: as above; settings: 250 g ai/ha, Flood, applied to paddy water, evaluated after 13 days
Outline: as §2

[17] = tested on: sedge, umbrella (small-flower umbrella sedge, Cyperus difformis); assay: as above; settings: 250 g ai/ha, Flood, applied to paddy water, evaluated after 13 days
Outline: as §2

[18] = tested on: blackgrass (Alopecurus myosuroides); assay: Test A preemergence soil spray, visual injury rating 0-100; settings: 10 days, 0 = no effect, 100 = complete control
Outline: as §1

corn (Zea mays) [19] = assay: as above; settings: 10 days, 0 = no effect, 100 = complete control
Outline: as §1

[20] = tested on: oat, wild (wild oat, Avena fatua); assay: as above; settings: 10 days, 0 = no effect, 100 = complete control
Outline: as §1

soybean (Glycine max) [21] = assay: as above; settings: 10 days, 0 = no effect, 100 = complete control
Outline: as §1

[22] = tested on: wheat (Triticum aestivum); assay: as above; settings: 10 days, 0 = no effect, 100 = complete control
Outline: as §1

corn (Zea mays) [23] = assay: Test A postemergence application, visual injury rating 0-100; settings: Postemergence, 10 days, 0 is no effect, 100 is complete control
Outline: as §1

[24] = tested on: galium (catchweed bedstraw, Galium aparine); assay: as above; settings: Postemergence, 10 days, 0 is no effect, 100 is complete control
Outline: as §1

[25] = tested on: oat, wild (wild oat, Avena fatua); assay: as above; settings: Postemergence, 10 days, 0 is no effect, 100 is complete control
Outline: as §1

soybean (Glycine max) [26] = assay: as above; settings: Postemergence, 10 days, 0 is no effect, 100 is complete control
Outline: as §1

[27] = tested on: wheat (Triticum aestivum); assay: as above; settings: Postemergence, 10 days, 0 is no effect, 100 is complete control
Outline: as §1

## COC(=O)[C@@H]1C=C[C@H](NC(=O)C2(C)CN(c3cc(F)cc(F)c3)C(=O)O2)C1 (stereo partly drawn) [Compound 27, Methyl (1S,4R)-4-[[[3-(3,5-difluorophenyl)-5-methyl-2-oxo-5-oxazolidinyl]carbonyl]amino]-2-cyclopentene-1-carboxylate]
[1]; 1000 g ai/ha
  Foxtail, Giant plant response rating (0 to 100 scale): 100
[2]; 1000 g ai/ha
  Goosegrass plant response rating (0 to 100 scale): 100
Kochia (Bassia scoparia) [3]; 1000 g ai/ha
  Kochia plant response rating (0 to 100 scale): 100
[4]; 1000 g ai/ha
  Amaranth, Palmer / Pigweed, Palmer plant response rating (0 to 100 scale): 100
[5]; 1000 g ai/ha
  Ragweed plant response rating (0 to 100 scale): 50
[6]; 1000 g ai/ha
  Ryegrass, Italian plant response rating (0 to 100 scale): 100
[7]; 1000 g ai/ha, 0 to 100 scale
  Blackgrass plant response rating: 90
[8]; 1000 g ai/ha, 0 to 100 scale
  Foxtail, Giant plant response rating: 90
[9]; 1000 g ai/ha, 0 to 100 scale
  Goosegrass plant response rating: 90
[10]; 1000 g ai/ha, 0 to 100 scale
  Horseweed plant response rating: 80
Kochia (Bassia scoparia) [11]; 1000 g ai/ha, 0 to 100 scale
  Kochia plant response rating: 80
[12]; 1000 g ai/ha, 0 to 100 scale
  Amaranth, Palmer plant response rating: 90
[13]; 1000 g ai/ha, 0 to 100 scale
  Ragweed plant response rating: 80
[14]; 1000 g ai/ha, 0 to 100 scale
  Ryegrass, Italian plant response rating: 100
[15]
  Plant response rating, Barnyardgrass (0 to 100 scale, 0 is no effect and 100 is complete control): 90
[16]
  Plant response rating, Ducksalad (0 to 100 scale, 0 is no effect and 100 is complete control): 85
Rice (Oryza sativa)
  Plant response rating, Rice (0 to 100 scale, 0 is no effect and 100 is complete control): 35
[17]
  Plant response rating, Sedge, Umbrella (0 to 100 scale, 0 is no effect and 100 is complete control): 50

## CONC(=O)C1C=CC(NC(=O)C2(C)CN(c3cc(F)cc(F)c3)C(=O)O2)C1 (stereo not drawn) [Compound 25]
[18]; 125 g ai/ha
  Blackgrass plant response rating (0 to 100 scale): 40
[18]; 500 g ai/ha
  Blackgrass plant response rating (0 to 100 scale): 90
Corn (Zea mays) [19]; 125 g ai/ha
  Corn plant response rating (0 to 100 scale): 50
Corn (Zea mays) [19]; 500 g ai/ha
  Corn plant response rating (0 to 100 scale): 90
[1]; 125 g ai/ha
  Foxtail, Giant plant response rating (0 to 100 scale): 20
[1]; 500 g ai/ha
  Foxtail, Giant plant response rating (0 to 100 scale): 90
[2]; 125 g ai/ha
  Goosegrass plant response rating (0 to 100 scale): 30
[2]; 500 g ai/ha
  Goosegrass plant response rating (0 to 100 scale): 100
Kochia (Bassia scoparia) [3]; 125 g ai/ha
  Kochia plant response rating (0 to 100 scale): 30
Kochia (Bassia scoparia) [3]; 500 g ai/ha
  Kochia plant response rating (0 to 100 scale): 90
[20]; 125 g ai/ha
  Oat, Wild plant response rating (0 to 100 scale): 80
[20]; 500 g ai/ha
  Oat, Wild plant response rating (0 to 100 scale): 90
[4]; 125 g ai/ha
  Amaranth, Palmer plant response rating (0 to 100 scale): 10
[4]; 500 g ai/ha
  Amaranth, Palmer plant response rating (0 to 100 scale): 80
[5]; 125 g ai/ha
  Ragweed plant response rating (0 to 100 scale): 0
[5]; 500 g ai/ha
  Ragweed plant response rating (0 to 100 scale): 30
[6]; 125 g ai/ha
  Ryegrass, Italian plant response rating (0 to 100 scale): 60
[6]; 500 g ai/ha
  Ryegrass, Italian plant response rating (0 to 100 scale): 90
Soybean (Glycine max) [21]; 125 g ai/ha
  Soybean plant response rating (0 to 100 scale): 0
Soybean (Glycine max) [21]; 500 g ai/ha
  Soybean plant response rating (0 to 100 scale): 70
[22]; 125 g ai/ha
  Wheat plant response rating (0 to 100 scale): 60
[22]; 500 g ai/ha
  Wheat plant response rating (0 to 100 scale): 100
[7]; 125 g ai/ha
  Blackgrass plant response rating (0 to 100 scale): 80
[7]; 500 g ai/ha
  Blackgrass plant response rating (0 to 100 scale): 90
Corn (Zea mays) [23]; 125 g ai/ha
  Corn plant response rating (0 to 100 scale): 100
Corn (Zea mays) [23]; 500 g ai/ha
  Corn plant response rating (0 to 100 scale): 100
[8]; 125 g ai/ha
  Foxtail, Giant plant response rating (0 to 100 scale): 90
[8]; 500 g ai/ha
  Foxtail, Giant plant response rating (0 to 100 scale): 90
[24]; 125 g ai/ha
  Galium plant response rating (0 to 100 scale): 80
[24]; 500 g ai/ha
  Galium plant response rating (0 to 100 scale): 80
[9]; 125 g ai/ha
  Goosegrass plant response rating (0 to 100 scale): 90
[9]; 500 g ai/ha
  Goosegrass plant response rating (0 to 100 scale): 90
[10]; 125 g ai/ha
  Horseweed plant response rating (0 to 100 scale): 60
[10]; 500 g ai/ha
  Horseweed plant response rating (0 to 100 scale): 80
Kochia (Bassia scoparia) [11]; 125 g ai/ha
  Kochia plant response rating (0 to 100 scale): 80
Kochia (Bassia scoparia) [11]; 500 g ai/ha
  Kochia plant response rating (0 to 100 scale): 90
[25]; 125 g ai/ha
  Oat, Wild plant response rating (0 to 100 scale): 90
[25]; 500 g ai/ha
  Oat, Wild plant response rating (0 to 100 scale): 100
[12]; 125 g ai/ha
  Amaranth, Palmer / Pigweed, Palmer plant response rating (0 to 100 scale): 90
[12]; 500 g ai/ha
  Amaranth, Palmer / Pigweed, Palmer plant response rating (0 to 100 scale): 90
[13]; 125 g ai/ha
  Ragweed plant response rating (0 to 100 scale): 60
[13]; 500 g ai/ha
  Ragweed plant response rating (0 to 100 scale): 80
[14]; 125 g ai/ha
  Ryegrass, Italian plant response rating (0 to 100 scale): 60
[14]; 500 g ai/ha
  Ryegrass, Italian plant response rating (0 to 100 scale): 60
Soybean (Glycine max) [26]; 125 g ai/ha
  Soybean plant response rating (0 to 100 scale): 70
Soybean (Glycine max) [26]; 500 g ai/ha
  Soybean plant response rating (0 to 100 scale): 80
[27]; 125 g ai/ha
  Wheat plant response rating (0 to 100 scale): 80
[27]; 500 g ai/ha
  Wheat plant response rating (0 to 100 scale): 80
